Assay results: patent US12600725B2 (Memorial Sloan-Kettering Cancer Center, priority 2013, dated 2026)
Several values for one entry are separate records, joined by “and”; a condition that tells them apart may be missing. Equal entries are not always repeated.

Experiments:
Hsp90α = Hsp90α (Homo sapiens, UniProt P07900); test: biochemical; settings: FP competition, 6 nM Cy3B-GM, 10 nM protein, 4° C. for 24 h
Grp94 = Grp94 (Canis lupus familiaris, UniProt P41148); settings: read-out: Grp94; FP competition, 6 nM Cy3B-GM, 10 nM protein, 4° C. for 24 h
Sequence of Grp94 (P41148 with tags, fused parts or gaps DELINS287-327GGGG): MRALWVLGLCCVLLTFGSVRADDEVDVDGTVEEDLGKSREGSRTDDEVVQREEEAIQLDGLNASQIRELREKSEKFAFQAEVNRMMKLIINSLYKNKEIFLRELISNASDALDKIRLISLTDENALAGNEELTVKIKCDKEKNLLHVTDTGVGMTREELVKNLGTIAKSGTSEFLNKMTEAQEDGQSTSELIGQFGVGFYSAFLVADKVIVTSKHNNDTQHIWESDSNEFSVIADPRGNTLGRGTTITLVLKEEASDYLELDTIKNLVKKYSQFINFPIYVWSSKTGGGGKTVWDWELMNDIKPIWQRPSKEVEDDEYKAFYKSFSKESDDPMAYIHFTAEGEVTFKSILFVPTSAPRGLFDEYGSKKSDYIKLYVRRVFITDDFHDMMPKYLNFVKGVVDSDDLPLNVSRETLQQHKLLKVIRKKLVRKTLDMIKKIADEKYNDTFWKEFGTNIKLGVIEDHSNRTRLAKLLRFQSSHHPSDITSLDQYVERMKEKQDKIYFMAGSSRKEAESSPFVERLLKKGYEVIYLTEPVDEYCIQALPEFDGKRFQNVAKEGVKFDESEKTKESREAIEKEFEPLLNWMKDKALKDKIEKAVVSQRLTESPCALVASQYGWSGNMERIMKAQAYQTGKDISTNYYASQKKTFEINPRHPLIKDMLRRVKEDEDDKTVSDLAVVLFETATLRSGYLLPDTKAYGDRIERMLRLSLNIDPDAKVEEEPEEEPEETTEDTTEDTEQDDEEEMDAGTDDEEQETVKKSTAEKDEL

MDA-MB-468 cells = test: Growth inhibition assay (Alamar blue); type: cell-based; settings: Homo sapiens
Experimental: We evaluated the antiproliferative effects of inhibitors using the dye Alamar blue. This reagent offers a rapid objective measure of cell viability in cell culture, and it uses the indicator dye resazurin to measure the metabolic capacity of cells, an indicator of cell viability. Briefly, MDA-MB-468 cells were plated on Costar 96-well plates at 1500 cells/well. Cells were allowed to incubate for 24 h at 37° C. before drug treatment. Drugs were added in triplicate at the indicated concentrations, and the plate was incubated for 72 h. Alamar Blue (440 μM) was added, and the plate read 6 h later using Softmax Pro 6 software (Fluorescence intensity mode, excitation 530 nm, emission 580 nm, with 560 nm dichroic mirror). Results were analyzed using GraphPad Prism 5. The percentage cell growth inhibition was calculated by comparing fluorescence readings obtained from treated versus control cells, accounting for initial cell population (time zero).

Hsp90β = Hsp90β (Homo sapiens, UniProt P08238)
Sequence of Hsp90β (P08238 whole entry): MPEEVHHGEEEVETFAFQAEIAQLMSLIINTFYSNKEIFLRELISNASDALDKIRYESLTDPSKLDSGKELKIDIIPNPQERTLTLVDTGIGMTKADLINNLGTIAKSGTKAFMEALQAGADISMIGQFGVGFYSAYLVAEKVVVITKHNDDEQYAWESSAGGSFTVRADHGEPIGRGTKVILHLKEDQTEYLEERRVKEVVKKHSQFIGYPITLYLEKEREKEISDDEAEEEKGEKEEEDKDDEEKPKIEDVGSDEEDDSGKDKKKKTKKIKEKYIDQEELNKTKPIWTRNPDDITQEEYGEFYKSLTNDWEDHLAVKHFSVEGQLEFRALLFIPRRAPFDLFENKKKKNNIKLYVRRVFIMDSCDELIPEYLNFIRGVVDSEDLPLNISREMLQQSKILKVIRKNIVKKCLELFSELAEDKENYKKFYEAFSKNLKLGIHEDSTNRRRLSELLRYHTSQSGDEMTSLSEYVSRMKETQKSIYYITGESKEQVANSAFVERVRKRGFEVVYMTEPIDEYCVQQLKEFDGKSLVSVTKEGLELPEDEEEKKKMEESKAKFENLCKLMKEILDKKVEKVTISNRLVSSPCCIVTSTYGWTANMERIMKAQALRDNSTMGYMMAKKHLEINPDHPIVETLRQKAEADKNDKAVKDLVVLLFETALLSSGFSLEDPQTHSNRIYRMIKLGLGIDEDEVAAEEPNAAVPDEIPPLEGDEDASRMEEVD

Trap-1 = target: T1, Trap-1 (Homo sapiens, UniProt Q12931); test: biochemical
T1 sequence (Q12931 60-704): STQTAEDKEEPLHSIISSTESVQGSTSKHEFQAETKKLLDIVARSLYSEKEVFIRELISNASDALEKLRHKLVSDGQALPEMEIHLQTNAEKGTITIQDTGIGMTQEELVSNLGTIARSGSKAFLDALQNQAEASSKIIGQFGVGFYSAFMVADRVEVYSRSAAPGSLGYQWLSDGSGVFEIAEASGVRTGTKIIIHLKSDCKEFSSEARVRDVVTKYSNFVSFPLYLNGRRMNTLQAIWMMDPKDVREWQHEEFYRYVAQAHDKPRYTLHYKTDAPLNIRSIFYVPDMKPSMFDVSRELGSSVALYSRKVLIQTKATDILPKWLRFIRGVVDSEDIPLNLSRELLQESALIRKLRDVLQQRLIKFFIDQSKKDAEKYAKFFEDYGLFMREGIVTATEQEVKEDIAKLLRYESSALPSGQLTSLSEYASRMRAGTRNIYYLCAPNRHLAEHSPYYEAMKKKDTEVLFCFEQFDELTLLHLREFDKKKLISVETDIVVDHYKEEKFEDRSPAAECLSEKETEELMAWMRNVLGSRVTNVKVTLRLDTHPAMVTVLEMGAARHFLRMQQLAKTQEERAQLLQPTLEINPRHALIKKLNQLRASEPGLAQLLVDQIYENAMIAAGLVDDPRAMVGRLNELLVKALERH

Row | SMILES | IC50 (Hsp90α) | IC50 (Grp94) [nM] | IC50 (MDA-MB-468 cells) [nM] | IC50 (Hsp90β) [µM] | IC50 (Trap-1) [µM]
1 | CC(C)NCCCn1c(Sc2cc(Cl)cc(-c3ncco3)c2)nc2c(N)ncnc21 [HJP-VI-49, 8-((3-chloro-5-(oxazol-2-yl)phenyl)thio)-9-(3-(isopropylamino)propyl)-9H-purin-6-amine] | 29.6 µM | 1300 | 3120 |  | 
2 | CC(C)NCCCn1c(Sc2cc(Cl)cc(-c3cc[nH]c3)c2)nc2c(N)ncnc21 [HJP-VI-44, 8-((3-chloro-5-(1H-pyrrol-3-yl)phenyl)thio)-9-(3-(isopropylamino)propyl)-9H-purin-6-amine] | 12.3 µM | 830 | 917 |  | 
3 | Nc1ncnc2c1nc(Sc1cc(Cl)cc(Cl)c1)n2CCCCC(F)(F)F [PDP-109A, 8-((3,5-Dichlorophenyl)thio)-9-(5,5,5-trifluoropentyl)-9H-purin-6-amine] | > 100 µM | 1110 ± 280 |  | > 100 | > 100
4 | CC(C)NCCCn1c(Sc2cc(Cl)cc(-c3ccn[nH]3)c2)nc2c(N)ncnc21 [HJP-VI-29, 8-((3-chloro-5-(1H-pyrazol-5-yl)phenyl)thio)-9-(3-(isopropylamino)propyl)-9H-purin-6-amine] | 25.9 µM | 1200 | 516 |  | 
5 | C#CCCCn1c(Sc2cc(Cl)c(Cl)c(Cl)c2)nc2c(N)ncnc21 [PDP-121] | > 100 µM | 1660 ± 480 |  | > 100 | 2.2 ± 0.67
6 | C#CCCCn1c(Sc2cccc(Cl)c2Cl)nc2c(N)ncnc21 [PDP-119A] | > 100 µM | 1960 |  | > 100 | > 100
7 | CC#CCn1c(Sc2cc(Cl)cc(Cl)c2)nc2c(N)ncnc21 [PDP-102A, 9-(But-2-yn-1-yl)-8-((3,5-dichlorophenyl)thio)-9H-purin-6-amine] | > 100 µM | > 5000 |  | > 100 | > 50
8 | Nc1ncnc2c1nc(Sc1cc(Cl)cc(Cl)c1)n2CCc1ccccc1 [PDP-127, 8-((3,5-Dichlorophenyl)thio)-9-phenethyl-9H-purin-6-amine] | > 100 µM | > 2500 |  | > 100 | > 100
9 | C#CCCCCn1cnc(N)c2nc(Sc3cc(Cl)cc(Cl)c3)nc1-2 [PDP-112B, 8-((3,5-Dichlorophenyl)thio)-3-(hex-5-yn-1-yl)-3H-purin-6-amine] | > 100 µM | > 10000 |  | > 100 | > 100
10 | C#CCCCn1cnc(N)c2nc(Sc3ccc(OC)cc3OC)nc1-2 [PU-H44] | > 100 µM | 46800 |  | > 100 | > 100
11 | CC#CCn1cnc(N)c2nc(Sc3cc(Cl)cc(Cl)c3)nc1-2 [PDP-102B, 3-(But-2-yn-1-yl)-8-((3,5-dichlorophenyl)thio)-3H-purin-6-amine] | > 100 µM | 10300 ± 820 |  | > 100 | > 25
12 | C#CCCCn1c(Sc2cc(Br)cc(OC(F)(F)F)c2)nc2c(N)ncnc21 [PDP-120A, 8-((3-Bromo-5-(trifluoromethoxy)phenyl)thio)-9-(pent-4-yn-1-yl)-9H-purin-6-amine] | > 100 µM | 1210 |  | > 100 | 1.87
13 | N#CCCCn1cnc(N)c2nc(Sc3cc(Cl)cc(Cl)c3)nc1-2 [PDP-93B, 4-(6-Amino-8-((3,5-dichlorophenyl)thio)-3H-purin-3-yl)butanenitrile] | > 100 µM | > 100000 |  | > 100 | > 100
14 | C#CCCCn1c(Sc2ccc(Br)cc2CC)nc2c(N)ncnc21 [PDP-I-54-N9] | 13.9 µM and 14 µM | 660 ± 100 |  | > 50 | 4.9 ± 0.27
15 | COc1cc(Cc2nc3c(N)ncnc3n2C(C)C)cc(OC)c1OC [PU-27] | > 500 µM | 59300 ± 2690 |  | > 250 | > 300
16 | Nc1ncn(CCCCC(F)(F)F)c2nc(Sc3cc(Cl)cc(Cl)c3)nc1-2 [PDP-109B, 8-((3,5-Dichlorophenyl)thio)-3-(5,5,5-trifluoropentyl)-3H-purin-6-amine] | > 100 µM | > 5000 |  | > 100 | > 100
17 | Nc1ncnc2c1nc(Sc1cc(Cl)cc(Cl)c1)n2CC1CCCCC1 [PDP-110A, 9-(Cyclohexylmethyl)-8-((3,5-dichlorophenyl)thio)-9H-purin-6-amine] | > 100 µM | 4340 ± 750 |  | > 100 | > 100

Compounds with a lower IC50 (Grp94), results first:

Row | IC50 (Hsp90α) | IC50 (Grp94) [nM] | IC50 (MDA-MB-468 cells) [nM] | IC50 (Hsp90β) [µM] | IC50 (Trap-1) [µM] | SMILES
18 | 48.9 µM | 630 | 129 |  |  | C=Cc1cc(Cl)cc(Sc2nc3c(N)ncnc3n2CCCNC(C)C)c1 [HJP-VI-31, 8-((3-chloro-5-vinylphenyl)thio)-9-(3-(isopropylamino)propyl)-9H-purin-6-amine]
19 | 27.8 µM | 540 | 314 |  |  | CC(C)(C)NCCCn1c(Sc2cc(Cl)cc(I)c2)nc2c(N)ncnc21 [HJP-VI-6, 9-(3-(tert-butylamino)propyl)-8-((3-chloro-5-iodophenyl)thio)-9H-purin-6-amine]
20 | > 25 µM | 490 | 562 |  |  | CC(C)(C)CNCCCn1c(Sc2cc(Cl)cc(I)c2)nc2c(N)ncnc21 [HJP-VI-5, 8-((3-chloro-5-iodophenyl)thio)-9-(3-(neopentylamino)propyl)-9H-purin-6-amine]
21 | 1.5 µM | 450 | 6580 |  |  | CC(C)NCCCn1c(Sc2ccc(Cl)cc2-c2ccn[nH]2)nc2c(N)ncnc21 [HJP-VI-43, 8-((4-chloro-2-(1H-pyrazol-5-yl)phenyl)thio)-9-(3-(isopropylamino)propyl)-9H-purin-6-amine]
22 | > 50 µM | 450 ± 30 |  | > 100 | 4.47 ± 0.31 | N#CCCCn1c(Sc2cc(Cl)cc(Cl)c2)nc2c(N)ncnc21 [PDP-93A, 4-(6-Amino-8-((3,5-dichlorophenyl)thio)-9H-purin-9-yl)butanenitrile]
23 | > 50 µM | 340 | 226 |  |  | C/C=C/c1cc(Cl)cc(Sc2nc3c(N)ncnc3n2CCCNC(C)C)c1 [HJP-VI-63, (E)-8-((3-chloro-5-(prop-1-en-1-yl)phenyl)thio)-9-(3-(isopropylamino)propyl)-9H-purin-6-amine]
24 | 35.6 µM | 276 | 840 |  |  | C[C@@H](NCCCn1c(Sc2cc(Cl)cc(Cl)c2)nc2c(N)ncnc21)C1CC1 [SO-III-128B, (R)-9-(3-((1-cyclopropylethyl)amino)propyl)-8-((3,5-dichlorophenyl)thio)-9H-purin-6-amine]
25 | > 100 µM | 270 ± 20 |  | > 100 | > 100 | C#CCCn1c(Sc2cc(Cl)cc(Cl)c2)nc2c(N)ncnc21 [PDP-I-14-N9, 9-(But-3-yn-1-yl)-8-((3,5-dichlorophenyl)thio)-9H-purin-6-amine]
26 | 15.7 ± 0.35 µM | 270 ± 140 |  | 18.3 ± 1.29 | 4.03 ± 0.89 | C#CCCCn1c(Sc2ccc(Cl)c(Cl)c2Cl)nc2c(N)ncnc21 [PDP-126A]
27 | > 100 µM | 260 ± 70 |  | > 100 | > 100 | C#CCCCn1c(Sc2cc(Br)cc(Br)c2)nc2c(N)ncnc21 [PDP-I-59-N9]
28 | 43.2 µM | 240 | 125 |  |  | CC(C)NCCCn1c(Sc2cc(Cl)cc(I)c2)nc2c(N)ncnc21 [HJP-V-149, 8-((3-chloro-5-iodophenyl)thio)-9-(3-(isopropylamino)propyl)-9H-purin-6-amine]
29 |  | 220 | 286 |  |  | CC(C)NCCCn1c(Sc2cc(Cl)cc(-c3ccc[nH]3)c2)nc2c(N)ncnc21 [HJP-VI-28, 8-((3-chloro-5-(1H-pyrrol-2-yl)phenyl)thio)-9-(3-(isopropylamino)propyl)-9H-purin-6-amine]
30 | 20.9 µM | 156 | 53 |  |  | CC(C)(C)NCCCn1c(Sc2cc(Cl)cc(Cl)c2)nc2c(N)nc(F)nc21 [HJP-VI-86, 9-(3-(tert-butylamino)propyl)-8-((3,5-dichlorophenyl)thio)-2-fluoro-9H-purin-6-amine]
31 | 13.8 µM | 153 | 2160 |  |  | C=C(c1cc(Cl)cc(Sc2nc3c(N)ncnc3n2CCCNC(C)C)c1)C(F)(F)F [HJP-VI-70, 8-((3-chloro-5-(3,3,3-trifluoroprop-1-en-2-yl)phenyl)thio)-9-(3-(isopropylamino)propyl)-9H-purin-6-amine]
